Consider 25 molecules from ChEMBL document CHEMBL5260839 (J Med Chem, 2019).

The structures appear in SMILES notation. pIC50, pKi: −log10 of the molar value. Calls of active or inactive are those of the source. No cut-off for these calls is given here. Peptide text beside a SMILES is read from it. * marks the point of attachment. Cbz = O=C(OCc1ccccc1)*

Data set [1] has as its system RS4-11. Nature of the data set: cells. The following applies: Homo sapiens, RS4-11, 96 h.
The target in data set [2] is T1, E3 ubiquitin-protein ligase Mdm2 (Homo sapiens, UniProt Q00987). Nature of the data set: Inhibition of MDM2 in human RS4-11 cells harbouring wildtype p53 assessed as fold change in MDM2 level at 1 uM incubate for 4 hrs by Western blot analysis (reference value: […]). It counts as cell-based.
Target sequence in this assay (Q00987 whole entry, looked up): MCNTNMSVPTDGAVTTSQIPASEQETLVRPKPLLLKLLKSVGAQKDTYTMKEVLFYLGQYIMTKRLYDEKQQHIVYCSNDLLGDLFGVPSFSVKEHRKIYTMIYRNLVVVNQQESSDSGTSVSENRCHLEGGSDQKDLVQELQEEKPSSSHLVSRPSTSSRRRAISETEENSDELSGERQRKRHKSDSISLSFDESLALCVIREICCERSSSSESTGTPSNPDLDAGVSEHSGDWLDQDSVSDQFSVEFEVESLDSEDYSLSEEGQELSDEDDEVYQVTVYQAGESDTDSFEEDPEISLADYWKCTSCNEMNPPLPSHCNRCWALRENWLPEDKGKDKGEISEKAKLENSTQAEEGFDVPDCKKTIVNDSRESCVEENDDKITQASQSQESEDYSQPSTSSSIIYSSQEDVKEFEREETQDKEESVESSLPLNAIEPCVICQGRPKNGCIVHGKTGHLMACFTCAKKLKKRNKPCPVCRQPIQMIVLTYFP
Data set [3] addresses T1, E3 ubiquitin-protein ligase Mdm2. Nature of the data set: Inhibition of MDM2 in human RS4-11 cells harbouring wildtype p53 assessed as fold change in p53 accumulation at 1 uM incubated for 4 hrs by Western blot analysis (reference value: 1). It counts as cell-based.
Target sequence in this assay (Q00987 whole entry, looked up): as above
For data set [4] the target is unchanged. Put plainly: Binding affinity to recombinant human MDM2 (1 to 118 residues) assessed as inhibition constant using FAM-tagged p-53 based peptide as substrate by fluorescence polarization based assay.
Target sequence in this assay (Q00987 whole entry): as the sequence (Q00987 whole entry, looked up) above
For data set [5] the target is unchanged. Put plainly: Inhibition of MDM2 in human RS4-11 cells harbouring wildtype p53 assessed as fold change in MDM2 level at 10 uM incubate for 4 hrs by Western blot analysis (reference value: […]). It counts as cell-based.
Target sequence in this assay (Q00987 whole entry, looked up): as above
The target is the same in data set [6]. Nature of the data set: Inhibition of MDM2 in human RS4-11 cells harbouring wildtype p53 assessed as fold change in p53 accumulation at 10 uM incubated for 4 hrs by Western blot analysis (reference value: […]). It counts as cell-based.
Target sequence in this assay (Q00987 whole entry, looked up): as above
Data set [7] deals with RS4-11. Nature of the data set: Induction of apoptosis in human RS4-11 cells incubated for 24 hrs by Annexin-V/PI staining based flow cytometric analysis. It counts as functional, cell-based.
Data set [8] concerns RS4-11. Nature of the data set: Inhibition of cell growth in human RS4-11 cells incubated for 4 days in the presence of lenalidomide by Lactate dehydrogenase based WST-8 assay. The data set is classed as functional. As to conditions: time 4.0 day.
The subject of data set [9] is MV4-11. Nature of the data set: Inhibition of cell growth in human MV4-11 cells incubated for 4 days in the presence of lenalidomide by Lactate dehydrogenase based WST-8 assay. It counts as functional. As to conditions: time 4.0 day.
Data set [10] has as its system RS4-11. Nature of the data set: Antitumor activity against human RS4-11 cells xenografted in mouse assessed as reduction in tumor growth at 100 mg/kg, po administered daily for 5 days starting from day 26. It counts as functional, organism-based. As to conditions: time 5.0 day.
Data set [11] in a line: Toxicity in mouse xenografted with human RS4-11 cells assessed as weight loss at 100 mg/kg, po administered once daily for 5 days. The data set is classed as organism-based. As to conditions: in vivo, 120 h, time 5 day.
Data set [12] in a line: Toxicity in mouse xenografted with human RS4-11 cells assessed as signs of toxicity at 100 mg/kg, po administered once daily for 5 days. The following applies: in vivo, 120 h, time 5 day. It counts as organism-based.
Data set [13] relates to MOLM-13. Put plainly: cells. As to conditions: Homo sapiens, MOLM-13, 96 h.
For data set [14], the system named is SIG-M5. Put plainly: cells. As to conditions: Homo sapiens, SIG-M5, 96 h.
In data set [15] the test system is MONO-MAC-6. Nature of the data set: cells. The following applies: Homo sapiens, MONO-MAC-6, 96 h.
For data set [16], the system named is KG-1. Put plainly: cells. As to conditions: Homo sapiens, KG-1, 96 h.
The target in data set [17] is T1, E3 ubiquitin-protein ligase Mdm2. Put plainly: Inhibition of MDM2 in human RS4-11 cells harbouring wildtype p53 assessed as fold change in MDM2 level at 3 uM incubate for 4 hrs by Western blot analysis (reference value: […]). The data set is classed as cell-based.
Target sequence in this assay (Q00987 whole entry, looked up): as above
Data set [18] has the same target. Nature of the data set: Inhibition of MDM2 in human RS4-11 cells harbouring wildtype p53 assessed as fold change in p53 accumulation at 3 uM incubated for 4 hrs by Western blot analysis (reference value: 1). The data set is classed as cell-based.
Target sequence in this assay (Q00987 whole entry, looked up): as above
Data set [19] relates to RS4-11. Nature of the data set: Potency index, ratio of MI-1061 IC50 to test compound IC50 for inhibition of cell growth in human RS4-11 cells incubated for 4 days by lactate dehydrogenase based WST-8 assay. It counts as functional. As to conditions: time 4 day.
In data set [20] the test system is RS4-11. Put plainly: Potency index, ratio of MI-1242 IC50 to test compound IC50 for inhibition of cell growth in human RS4-11 cells incubated for 4 days by lactate dehydrogenase based WST-8 assay. The data set is classed as functional. As to conditions: time 4 day.

In data set [1], `O=C1CCC(N2Cc3ccc(CC#CCCCNC(=O)c4ccc(NC(=O)[C@@H]5NC6(CCCCC6)[C@@]6(C(=O)Nc7cc(Cl)ccc76)[C@H]5c5cccc(Cl)c5F)cc4)cc3C2=O)C(=O)N1` (some centres not stated) had a pIC50 of 8.30. For `O=C1CCC(N2C(=O)c3cccc(NCCCCCCCNC(=O)c4ccc(NC(=O)[C@@H]5NC6(CCCCC6)[C@@]6(C(=O)Nc7cc(Cl)ccc76)[C@H]5c5cccc(Cl)c5F)cc4)c3C2=O)C(=O)N1` (some centres not stated), the pIC50 in [1] was 7.00.

`O=C1CCC(N2Cc3cc(CC#CCCCNC(=O)c4ccc(NC(=O)[C@@H]5NC6(CCCCC6)[C@@]6(C(=O)Nc7cc(Cl)ccc76)[C@H]5c5cccc(Cl)c5F)cc4)ccc3C2=O)C(=O)N1` (some centres not stated) showed a negative logarithm of the IC50 (pIC50) in data set [1] of 8.30.

`O=C1CCC(N2C(=O)c3cccc(NC(=O)c4ccc(NC(=O)[C@@H]5NC6(CCCCC6)[C@@]6(C(=O)Nc7cc(Cl)ccc76)[C@H]5c5cccc(Cl)c5F)cc4)c3C2=O)C(=O)N1` (some centres not stated) had a pIC50 in data set [1] of 7.16. Consider `Cc1ncsc1-c1ccc([C@H](C)NC(=O)[C@@H]2C[C@@H](O)CN2C(=O)[C@@H](NC(=O)CCOCCOCCNC(=O)c2ccc(NC(=O)[C@@H]3NC4(CCCCC4)[C@@]4(C(=O)Nc5cc(Cl)ccc54)[C@H]3c3cccc(Cl)c3F)cc2)C(C)(C)C)cc1`, for which, in data set [1], the negative-log IC50 (pIC50) was 6.30. For `O=C1CCC(N2C(=O)c3cccc(NCCOCCOCCOCCNC(=O)c4ccc(NC(=O)[C@@H]5NC6(CCCCC6)[C@@]6(C(=O)Nc7cc(Cl)ccc76)[C@H]5c5cccc(Cl)c5F)cc4)c3C2=O)C(=O)N1` (some centres not stated), the negative-log IC50 (pIC50) in [1] is 8.30. The same measure, in the same setting: the result for `O=C1CCC(N2C(=O)c3cccc(NCCNC(=O)c4ccc(NC(=O)[C@@H]5NC6(CCCCC6)[C@@]6(C(=O)Nc7cc(Cl)ccc76)[C@H]5c5cccc(Cl)c5F)cc4)c3C2=O)C(=O)N1` (some centres not stated) reads 7.82. Same read-out and setting: under `Cc1ncsc1-c1ccc([C@H](C)NC(=O)[C@@H]2C[C@@H](O)CN2C(=O)[C@@H](NC(=O)CCCCNC(=O)c2ccc(NC(=O)[C@@H]3NC4(CCCCC4)[C@@]4(C(=O)Nc5cc(Cl)ccc54)[C@H]3c3cccc(Cl)c3F)cc2)C(C)(C)C)cc1` stands 5.92.

For `O=C1CCC(N2Cc3c(C#CCCNC(=O)c4ccc(NC(=O)[C@@H]5NC6(CCCCC6)[C@@]6(C(=O)Nc7cc(Cl)ccc76)[C@H]5c5cccc(Cl)c5F)cc4)cccc3C2=O)C(=O)N1` (some centres not stated), the pIC50 in data set [1] was 8.41. As for `O=C1CCC(N2Cc3cccc(NCCCCNC(=O)c4ccc(NC(=O)[C@@H]5NC6(CCCCC6)[C@@]6(C(=O)Nc7cc(Cl)ccc76)[C@H]5c5cccc(Cl)c5F)cc4)c3C2=O)C(=O)N1` (some centres not stated), the negative logarithm of the IC50 (pIC50) in data set [1] was 8.30. As for `CC(C)C[C@H](NC(=O)[C@H](CCc1ccccc1)NC(=O)CN1CCOCC1)C(=O)N[C@@H](Cc1ccccc1)C(=O)N[C@@H](CC(C)C)C(=O)[C@@]1(C)CO1`, the fold change (FC) was 3.6 in [2] and 8.5 in data set [3]. As for `O=C1CCC(N2C(=O)c3cccc(NCCCCCNC(=O)c4ccc(NC(=O)[C@@H]5NC6(CCCCC6)[C@@]6(C(=O)Nc7cc(Cl)ccc76)[C@H]5c5cccc(Cl)c5F)cc4)c3C2=O)C(=O)N1` (some centres not stated), the pIC50 in data set [1] is 7.92. The molecule `Cc1ncsc1-c1ccc([C@H](C)NC(=O)[C@@H]2C[C@@H](O)CN2C(=O)[C@@H](NC(=O)CCCOCCOCCOCCNC(=O)c2ccc(NC(=O)[C@@H]3NC4(CCCCC4)[C@@]4(C(=O)Nc5cc(Cl)ccc54)[C@H]3c3cccc(Cl)c3F)cc2)C(C)(C)C)cc1` had a pIC50 in data set [1] of 6.47. The same measure, in the same setting: the result for `O=C1CCC(N2C(=O)c3cccc(CCCCCNC(=O)c4ccc(NC(=O)[C@@H]5NC6(CCCCC6)[C@@]6(C(=O)Nc7cc(Cl)ccc76)[C@H]5c5cccc(Cl)c5F)cc4)c3C2=O)C(=O)N1` (some centres not stated) reads 7.54.

Turning to `CNC(=O)c1ccc(NC(=O)[C@@H]2NC3(CCCCC3)[C@@]3(C(=O)Nc4cc(Cl)ccc43)[C@H]2c2cccc(Cl)c2F)cc1`, in data set [4], the negative logarithm of the Ki (pKi) is 8.57. In data set [1], the negative-log IC50 (pIC50) is 7.05.

On to `CC(C)C[C@@H](C=O)NC(=O)[C@H](CC(C)C)NC(=O)[C@H](CC(C)C)NC(=O)OCc1ccccc1` (Cbz-Leu-Leu-Leu-aldehyde), for which the fold change (FC) worked out at 2.9 in data set [5] and 6.9 in [6]. As for `CN1C(=O)CCC(N2Cc3c(C#CCCCNC(=O)c4ccc(NC(=O)[C@@H]5NC6(CCCCC6)[C@@]6(C(=O)Nc7cc(Cl)ccc76)[C@H]5c5cccc(Cl)c5F)cc4)cccc3C2=O)C1=O` (some centres not stated), in [1], the negative logarithm of the IC50 (pIC50) was 5.92. Take `O=C(O)c1ccc(NC(=O)[C@@H]2NC3(CCCCC3)[C@@]3(C(=O)Nc4cc(Cl)ccc43)[C@H]2c2cccc(Cl)c2F)cc1`: the Activity result in [7] is “Dose-Dependent Effect”; in data set [11], “Non-Toxic”; in data set [12] it was “Non-Toxic”. Further, the inhibition result in data set [8] and in [9] was “Active” in each case. The outcome in [10] was Active. Further, the pIC50 in data set [13] is 7.11; in data set [14] it was 6.98; in [15], < 5.00; in data set [16], < 5.00.

Regarding `NS(=O)(=O)OC[C@@H]1C[C@@H](n2ccc3c(N[C@H]4CCc5ccccc54)ncnc32)C[C@@H]1O`, the fold change (FC) stood at 2.4 in data set [17] and 5.1 in [18]. For the molecule `O=C1CCC(N2C(=O)c3cccc(NCCCCCCNC(=O)c4ccc(NC(=O)[C@@H]5NC6(CCCCC6)[C@@]6(C(=O)Nc7cc(Cl)ccc76)[C@H]5c5cccc(Cl)c5F)cc4)c3C2=O)C(=O)N1` (some centres not stated), in data set [1], the pIC50 was 7.66. `O=C1CCC(N2Cc3c(C#CCCCNC(=O)c4ccc(NC(=O)[C@H]5NC6(CCCCC6)[C@]6(C(=O)Nc7cc(Cl)ccc76)[C@@H]5c5cccc(Cl)c5F)cc4)cccc3C2=O)C(=O)N1` (some centres not stated): the negative-log IC50 (pIC50) in [1] was < 5.00. Turning to `O=C1CCC(N2C(=O)c3cccc(NCCCCNC(=O)c4ccc(NC(=O)[C@@H]5NC6(CCCCC6)[C@@]6(C(=O)Nc7cc(Cl)ccc76)[C@H]5c5cccc(Cl)c5F)cc4)c3C2=O)C(=O)N1` (some centres not stated), the “Ratio IC50” value in data set [19] and in data set [20] was 10 throughout. In addition, in [1], the negative logarithm of the IC50 (pIC50) was 8.00.

The molecule `O=C1CCC(N2C(=O)c3cccc(NCCOCCNC(=O)c4ccc(NC(=O)[C@@H]5NC6(CCCCC6)[C@@]6(C(=O)Nc7cc(Cl)ccc76)[C@H]5c5cccc(Cl)c5F)cc4)c3C2=O)C(=O)N1` (some centres not stated) showed a negative logarithm of the IC50 (pIC50) in [1] of 8.10. The molecule `O=C1CCC(N2C(=O)c3cccc(NCCCNC(=O)c4ccc(NC(=O)[C@@H]5NC6(CCCCC6)[C@@]6(C(=O)Nc7cc(Cl)ccc76)C5c5cccc(Cl)c5F)cc4)c3C2=O)C(=O)N1` (single isomer, unassigned) gave a pIC50 in data set [1] of 8.05. In the case of `O=C1CCC(N2C(=O)c3cccc(NCCOCCOCCNC(=O)c4ccc(NC(=O)[C@@H]5NC6(CCCCC6)[C@@]6(C(=O)Nc7cc(Cl)ccc76)[C@H]5c5cccc(Cl)c5F)cc4)c3C2=O)C(=O)N1` (some centres not stated), the “Ratio IC50” value in data set [19] and in data set [20] was 10 throughout. In data set [1], the pIC50 is 8.15.
